For 57 compounds, IC50 results are on record in US12581252B2, “Substituted pyrrolo[3,4-b]pyridines as PI3K-α inhibitors” (Relay Therapeutics, Inc., priority 2020, dated 2026).

pIC50: −log10 of the molar value. Where only a bound is given, the exact number is not on record here.

The term pIC50 denotes the negative decadic logarithm of the IC50, by convention in mol/L.

The target in the assay is H1047R PIK3CA enzyme (Homo sapiens, UniProt P42336, H1047R). As to the kind of experiment: ADP-Glo Biochemical PIK3CA Kinase Assay. In general terms: ADP-Glo first removes unused ATP, then detects ADP through luciferase.
H1047R PIK3CA enzyme, sequence (P42336 whole entry H1047R): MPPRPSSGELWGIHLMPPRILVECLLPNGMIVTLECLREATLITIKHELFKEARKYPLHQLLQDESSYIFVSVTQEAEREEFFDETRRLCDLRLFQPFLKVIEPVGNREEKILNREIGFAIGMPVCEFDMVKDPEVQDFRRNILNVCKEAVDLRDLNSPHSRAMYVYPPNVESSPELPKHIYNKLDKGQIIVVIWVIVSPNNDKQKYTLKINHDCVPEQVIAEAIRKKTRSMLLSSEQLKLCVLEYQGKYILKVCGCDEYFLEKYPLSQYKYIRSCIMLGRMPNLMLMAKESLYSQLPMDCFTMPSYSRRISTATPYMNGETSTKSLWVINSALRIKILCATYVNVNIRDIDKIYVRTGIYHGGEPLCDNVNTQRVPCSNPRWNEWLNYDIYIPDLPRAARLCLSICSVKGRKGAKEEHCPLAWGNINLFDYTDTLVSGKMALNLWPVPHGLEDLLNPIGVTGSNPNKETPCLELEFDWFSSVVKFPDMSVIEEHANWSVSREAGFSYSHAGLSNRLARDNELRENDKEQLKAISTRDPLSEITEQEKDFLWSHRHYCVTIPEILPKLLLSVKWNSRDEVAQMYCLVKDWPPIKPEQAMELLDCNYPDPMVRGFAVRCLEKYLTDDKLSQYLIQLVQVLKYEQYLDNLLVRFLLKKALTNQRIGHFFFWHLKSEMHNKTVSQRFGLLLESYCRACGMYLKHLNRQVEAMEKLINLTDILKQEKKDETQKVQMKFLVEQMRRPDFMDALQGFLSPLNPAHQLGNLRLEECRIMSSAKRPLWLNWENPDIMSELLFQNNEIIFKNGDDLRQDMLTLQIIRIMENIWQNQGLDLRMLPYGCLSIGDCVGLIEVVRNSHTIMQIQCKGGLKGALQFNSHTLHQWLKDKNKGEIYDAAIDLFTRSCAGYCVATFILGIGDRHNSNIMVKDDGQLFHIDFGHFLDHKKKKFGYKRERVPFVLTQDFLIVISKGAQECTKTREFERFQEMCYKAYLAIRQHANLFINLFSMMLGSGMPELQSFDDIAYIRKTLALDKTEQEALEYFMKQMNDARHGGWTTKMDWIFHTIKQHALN
H1047R PIK3CA enzyme, sequence (P27986 whole entry partner): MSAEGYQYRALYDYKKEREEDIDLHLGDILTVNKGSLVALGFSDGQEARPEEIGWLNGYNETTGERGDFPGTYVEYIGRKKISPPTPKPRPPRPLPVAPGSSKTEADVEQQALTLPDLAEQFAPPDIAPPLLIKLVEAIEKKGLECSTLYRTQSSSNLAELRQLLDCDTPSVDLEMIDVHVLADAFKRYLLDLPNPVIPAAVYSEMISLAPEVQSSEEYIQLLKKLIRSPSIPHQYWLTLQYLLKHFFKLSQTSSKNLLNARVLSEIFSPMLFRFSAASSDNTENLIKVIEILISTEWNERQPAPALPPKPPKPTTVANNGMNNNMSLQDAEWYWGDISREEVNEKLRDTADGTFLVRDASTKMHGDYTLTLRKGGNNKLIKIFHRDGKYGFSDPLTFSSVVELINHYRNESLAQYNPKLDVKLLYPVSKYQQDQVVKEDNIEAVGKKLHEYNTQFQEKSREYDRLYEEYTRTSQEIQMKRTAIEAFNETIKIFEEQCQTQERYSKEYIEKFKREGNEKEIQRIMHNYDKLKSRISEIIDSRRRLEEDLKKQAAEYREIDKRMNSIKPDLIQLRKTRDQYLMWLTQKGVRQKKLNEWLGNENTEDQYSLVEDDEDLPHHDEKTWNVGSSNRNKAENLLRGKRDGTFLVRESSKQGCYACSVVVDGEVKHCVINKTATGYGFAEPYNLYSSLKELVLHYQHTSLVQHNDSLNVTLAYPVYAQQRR
Compound `N#Cc1cnn(Cc2cc(NC(=O)N3C[C@@](O)(C(F)(F)F)c4cc(F)ccc43)c3c(c2)C(=O)N[C@@H]3c2cc(F)ccc2Cl)c1` (single isomer, unassigned) [Compound I-2670] showed a pIC50 of 6.00 to 6.30.

The compound `CC1(C)CC(COc2cc(NC(=O)c3cc(F)cc(C(F)(F)F)c3)c3c(c2)C(=O)NC3c2cc(F)ccc2Cl)O1` (stereo not drawn) [Compound I-873] showed a pIC50 of 6.30 to 7.00.

The compound `Cc1ccccc1C1c2c(NC(=O)c3csc4ccccc34)cccc2C(=O)N1C` (stereo not drawn) [Compound I-82] gave a pIC50 of 4.00 to 5.00.

In turn, `CS(=O)(=O)C1CN(c2cc(NC(=O)c3cc(F)cc(C(F)(F)F)c3)c3c(n2)C(=O)NC3c2cc(F)ccc2Cl)C1` (stereo not drawn) [Compound I-418] had a pIC50 of 6.30 to 7.00.

Regarding `Cc1nccn1-c1cc(NC(=O)N2C[C@](O)(C(F)(F)F)c3cc(F)ccc32)c2c(c1)C(=O)N[C@@H]2c1cc(F)ccc1Cl` (single isomer, unassigned) [Compound I-2662], the pIC50 is 5.00 to 6.00.

For the compound `Cc1cccc(C(=O)Nc2cc(Br)cc3c2C(c2cc(F)ccc2Cl)NC3=O)c1` (stereo not drawn) [Compound I-520], the pIC50 was 5.00 to 6.00.

The compound `Cc1ccccc1C1NC(=O)c2cccc(NC(=O)c3coc4c(F)cc(Cl)cc34)c21` (stereo not drawn) [Compound I-81] had a pIC50 of at least 7.00.

Compound `O=C(Nc1cccc2c1[C@H]([C@@H]1CCCC(F)(F)C1)NC2=O)c1cc(F)cc(C(F)(F)F)c1` [Compound I-1752] showed a negative-log IC50 (pIC50) of 5.00 to 6.00.

In the case of `Cc1ccccc1C1NC(=O)c2cc(-c3cnn(C)c3)cc(NC(=O)c3csc4ccccc34)c21` (stereo not drawn) [Compound I-115, N-[6-(1-methyl-1H-pyrazol-4-yl)-3-(2-methylphenyl)-1-oxo-2,3-dihydro-1H-isoindol-4-yl]-1-benzothiophene-3-carboxamide], the pIC50 is at least 7.00.

As to `O=C1NC(c2cc(F)ccc2Cl)c2c(OCc3ccccc3)cc(-c3ccc4ncnn4c3)cc21` (stereo not drawn) [Compound I-1955], the pIC50 was 4.00 to 5.00.

On to `O=C(Nc1cc(/N=C2\OC[C@@H]3CCCN23)cc2c1C(c1cc(F)ccc1Cl)NC2=O)c1cc(F)cc(C(F)(F)F)c1` (stereo partly drawn) [Compound I-2355], for which the pIC50 was 6.30 to 7.00.

The compound `O=C1N[C@H](c2cc(F)ccc2Cl)c2c(NC(=O)[C@@H]3C[C@@H](O)C[C@H](C(F)(F)F)C3)cccc21` (single isomer, unassigned) [Compound I-2176] gave a pIC50 of 4.00 to 5.00.

`Cn1ccc2c(C(=O)Nc3cc(Br)cc4c3C(c3cc(F)ccc3Cl)NC4=O)ccnc21` (stereo not drawn) [Compound I-636] showed a negative-log IC50 (pIC50) of 4.00 to 5.00.

Compound `O=C(Nc1cc(Br)cc2c1C(c1cc(F)ccc1Cl)NC2=O)c1cc(Cl)ccc1F` (stereo not drawn) [Compound I-794] gave a pIC50 of 5.00 to 6.00.

`[2H]C1(c2cc(F)ccc2Cl)NC(=O)c2cc(-c3ccc4ncnn4c3)cc(NC(=O)c3cc(F)cc(C(F)(F)F)c3)c21` (stereo not drawn) [Compound I-1413]: the negative logarithm of the IC50 (pIC50) was at least 7.00.

`Cc1ccccc1C1NC(=O)c2cccc(NC(=O)c3cc(F)cc(C(F)(F)F)c3)c21` (stereo not drawn) [Compound I-2] had a negative logarithm of the IC50 (pIC50) of 6.30 to 7.00.

Turning to `O=C1NC(c2cc(F)ccc2Cl)c2c(NC(=O)C(O)c3ccccc3)cc(-c3ccc4ncnn4c3)cc21` (stereo not drawn) [Compound I-1724], the pIC50 is 4.00 to 5.00.

Compound `CC(C)N1C[C@H](O)C[C@H]1C(=O)Nc1cccc2c1C(c1cc(F)ccc1Cl)NC2=O` (mixture of isomers) [Compound I-2392] showed a pIC50 of 4.00 to 5.00.

Compound `O=C1N[C@H](c2cc(F)ccc2Cl)c2c(NC(=O)N3C[C@@H](O)c4cc(F)ccc43)cc(-c3ccc(=O)n(C(F)F)c3)cc21` (single isomer, unassigned) [Compound I-2449] had a pIC50 of 6.30 to 7.00.

For `Cc1ccccc1C1NC(=O)c2c(C(=O)N3CC(S(C)(=O)=O)C3)ccc(NC(=O)c3nsc4ccccc34)c21` (stereo not drawn) [Compound I-225], the pIC50 was 6.30 to 7.00.

The compound `Cc1nc2ccccn2c1CC(=O)Nc1cc(Br)cc2c1C(c1cc(F)ccc1Cl)NC2=O` (stereo not drawn) [Compound I-603] had a pIC50 of 4.00 to 5.00.

In turn, `Cc1ccccc1[C@@H]1NC(=O)c2cc(CO)cc(NC(=O)c3nsc4ccccc34)c21` [Compound I-306] gave a pIC50 of at least 7.00.

`N#Cc1cnc2cc(F)c(-c3cc(NC(=O)c4cc(F)cc(C(F)(F)F)c4)c4c(c3)C(=O)N[C@H]4c3cc(F)ccc3Cl)cn12` [Compound I-1884]: the pIC50 was at least 7.00.

As for `N#CCC(=O)Nc1cc(-c2ccc3ncnn3c2)cc2c1C(c1cc(F)ccc1Cl)NC2=O` (stereo not drawn) [Compound I-2000], the pIC50 was 4.00 to 5.00.

The compound `O=C1N[C@H](c2cc(F)ccc2Cl)c2c(NC(=O)N3C[C@H](O)c4cc(F)ccc43)cc(Cl)cc21` (single isomer, unassigned) [Compound I-2399] had a pIC50 of 5.00 to 6.00.

`CNC(=O)c1ncc(-c2cc(NC(=O)c3cc(F)cc(C(F)(F)F)c3)c3c(c2)C(=O)NC3c2cc(F)ccc2Cl)cn1` (stereo not drawn) [Compound I-1506] showed a pIC50 of 6.30 to 7.00.

`O=C(Nc1cc(Br)cc2c1[C@H](c1cc(F)ccc1F)NC2=O)c1cc(F)cc(C(F)(F)F)c1` [Compound I-674] had a pIC50 of 6.30 to 7.00.

In turn, `CNc1cc(NC(=O)N2C[C@@](O)(C(F)(F)F)c3cc(F)ccc32)c2c(c1)C(=O)N[C@H]2c1cc(F)ccc1Cl` (single isomer, unassigned) [Compound I-2642] showed a pIC50 of 6.30 to 7.00.

`O=C(CC1CC(F)(F)C1(F)F)Nc1cc(Br)cc2c1C(c1cc(F)ccc1Cl)NC2=O` (stereo not drawn) [Compound I-1633]: the pIC50 is 5.00 to 6.00.

`N#Cc1cc(-c2cc(NC(=O)c3cc(F)cc(C(F)(F)F)c3)c3c(c2)C(=O)NC3c2cc(F)ccc2Cl)cn2ncnc12` (stereo not drawn) [Compound I-1822] had a pIC50 of at least 7.00.

`O=C(Nc1cccc2c1C(C13CC4CC(CC(C4)C1)C3)NC2=O)c1cc(F)cc(C(F)(F)F)c1` (stereo not drawn) [Compound I-1969]: the pIC50 was 4.00 to 5.00.

On to `O=C(Nc1cc(-c2ccc3ncnn3c2)cc2c1[C@H](c1cc(Cl)ccc1Cl)NC2=O)c1cc(F)cc(C(F)(F)F)c1` [Compound I-1053], for which the pIC50 is 6.00 to 6.30.

In turn, `N#CCCc1cc(NC(=O)N2C[C@H](O)c3cc(F)ccc32)c2c(c1)C(=O)N[C@@H]2c1cc(F)ccc1Cl` (single isomer, unassigned) [Compound I-2349] gave a pIC50 of 5.00 to 6.00.

Compound `CN(C)S(=O)(=O)n1nccc1-c1cc(NC(=O)c2cc(F)cc(C(F)(F)F)c2)c2c(c1)C(=O)NC2c1cc(F)ccc1Cl` (stereo not drawn) [Compound I-1439] gave a pIC50 of at least 7.00.

Regarding `O=C1NC(c2cc(F)ccc2Cl)c2c(NC(=O)N3CCC(C(F)(F)F)CC3)cc(Br)cc21` (stereo not drawn) [Compound I-430], the pIC50 was 5.00 to 6.00.

In the case of `Cc1cc2ncnn2cc1-c1cc(NC(=O)c2cc(F)cc(C(F)(F)F)c2)c2c(c1)C(=O)N[C@H]2c1cc(F)ccc1Cl` [Compound I-1874], the pIC50 is at least 7.00.

In turn, `O=C1NC(c2cc(F)ccc2Cl)c2c(NC(=O)C34CC5CC(C3)CC(C(F)(F)F)(C5)C4)cc(Br)cc21` (stereo not drawn) [Compound I-1183] showed a pIC50 of at least 7.00.

`O=C(Nc1cc(Br)cc2c1C(c1cc(F)ccc1Cl)NC2=O)c1cc(C(F)(F)F)ccc1F` (stereo not drawn) [Compound I-515] gave a pIC50 of 5.00 to 6.00.

On to `O=C(Nc1cc(-c2cn3ncnc3cn2)cc2c1[C@@H](c1cc(F)ccc1C(F)F)NC2=O)c1cc(F)cc(C(F)(F)F)c1` (single isomer, unassigned) [Compound I-2233], for which the negative-log IC50 (pIC50) is 5.00 to 6.00.

The compound `Cc1ccccc1C1NC(=O)c2cccc(NC(=O)c3cc(F)cc4cc[nH]c34)c21` (stereo not drawn) [Compound I-454] gave a pIC50 of 6.30 to 7.00.

In the case of `CC(O)(CC#N)c1cc(NC(=O)c2cc(F)cc(C(F)(F)F)c2)c2c(c1)C(=O)NC2c1cc(F)ccc1Cl` (stereo not drawn) [Compound I-1211], the negative-log IC50 (pIC50) is at least 7.00.

Consider `O=C1N[C@@H](c2cc(F)ccc2Cl)c2c(NC(=O)N3C[C@@](O)(C(F)F)c4cc(F)ccc43)cccc21` (single isomer, unassigned) [Compound I-2555], for which the pIC50 was 5.00 to 6.00.

Compound `C[C@]1(C(=O)Nc2cc(Br)cc3c2[C@H](c2cc(F)ccc2Cl)NC3=O)CCC[C@@H](C(F)(F)F)C1` (single isomer, unassigned) [Compound I-2263] showed a pIC50 of 5.00 to 6.00.

`O=C1NC(c2cc(F)ccc2Cl)c2c(NS(=O)(=O)c3cc(F)cc(C(F)(F)F)c3)cc(Br)cc21` (stereo not drawn) [Compound I-1352] gave a pIC50 of 4.00 to 5.00.

As to `O=C1NC(c2cc(F)ccc2Cl)c2c(NC(=O)N3CCc4cc(Cl)ccc43)cc(Br)cc21` (stereo not drawn) [Compound I-1269], the pIC50 is 5.00 to 6.00.

`O=C(CCC(F)(F)F)Nc1cccc2c1[C@H](c1cc(F)ccc1Cl)NC2=O` [Compound I-2120] had a pIC50 of 4.00 to 5.00.

Turning to `O=C(Nc1cc(Br)cc2c1C(c1cc(F)ccc1Cl)NC2=O)c1cc(F)cc(Cl)c1F` (stereo not drawn) [Compound I-836], the pIC50 was 6.00 to 6.30.

In turn, `O=C1N[C@@H](c2cc(F)ccc2Cl)c2c(NC(=O)[C@H]3CCCCN3)cc(-c3ccc4ncnn4c3)cc21` (racemic) [Compound I-1779] showed a pIC50 of 4.00 to 5.00.

`O=C(Nc1cc(Br)cc2c1C(c1cc(F)ccc1Cl)NC2=O)c1ccc(Cl)c(C(F)(F)F)c1` (stereo not drawn) [Compound I-952] had a pIC50 of 6.30 to 7.00.

`O=C1N[C@@H](c2cc(F)ccc2Cl)c2c(NC(=O)N3C[C@](O)(C(F)(F)F)c4cc(F)ccc43)cccc21` (single isomer, unassigned) [Compound I-2515]: the pIC50 was 5.00 to 6.00.

The compound `O=C1N[C@H](c2cc(F)ccc2Cl)c2c(NC(=O)N3C[C@@H](O)c4cc(F)ccc43)cc(-n3nccn3)cc21` (single isomer, unassigned) [Compound I-2345] gave a pIC50 of 5.00 to 6.00.

On to `O=C(Nc1cccc2c1C(CN1CCCCC1)NC2=O)c1cc(F)cc(C(F)(F)F)c1` (stereo not drawn) [Compound I-1678], for which the pIC50 is 4.00 to 5.00.

For `O=C(Nc1cc(NC(=O)N2CC(F)(F)C2)cc2c1C(c1cc(F)ccc1Cl)NC2=O)c1cc(F)cc(C(F)(F)F)c1` (stereo not drawn) [Compound I-513], the pIC50 was at least 7.00.

Compound `O=C(Nc1cc(-c2ccc(C(F)F)nc2)cc2c1[C@H](c1cc(F)ccc1Cl)NC2=O)c1cc(F)cc(C(F)(F)F)c1` [Compound I-2008] showed a pIC50 of at least 7.00.

Regarding `Cc1ccccc1C1NC(=O)c2cccc(NC(=O)c3cnc(OC(C)C)c(F)c3)c21` (stereo not drawn) [Compound I-109], the pIC50 is 4.00 to 5.00.

For `Cc1ccccc1C1NC(=O)c2cccc(NC(=O)c3ncsc3Br)c21` (stereo not drawn) [Compound I-452], the pIC50 is 5.00 to 6.00.

For the compound `O=C(Nc1cc(N2CCCC2=O)cc2c1C(c1cc(F)ccc1Cl)NC2=O)c1cc(F)cc(C(F)(F)F)c1` (stereo not drawn) [Compound I-1273], the pIC50 was at least 7.00.
